Experimental data as given in the supplement of paper PMC10307832.

Key:
Assay in all cases: relative viability (nuclei count vs DMSO), 5 days (fraction); higher = more cells survive
[1] = tested on: NCI-H23
Summary of the method: (§1)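 Values are medians from duplicate plates. Each reflects relative viability, defined as the nuclei count of treated wells over that of vehicle wells. Lung cancer cell lines in 1536-well plates were pin-tool dosed one day after seeding with one drug alone or with a fixed anchor-drug dose plus five library-drug doses (not always all listed) in √10 steps, then fixed, stained and imaged at 4× after 5 days.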

[2] = tested on: NCI-H2347
Summary of the method: as §1

[3] = tested on: ChaGo-K-1
Summary of the method: as §1

[4] = tested on: NCI-H2085
Summary of the method: as §1

[5] = tested on: 201T
Summary of the method: as §1

[6] = tested on: NCI-H1651
Summary of the method: as §1

[7] = tested on: NCI-H1975
Summary of the method: as §1

[8] = tested on: NCI-H1755
Summary of the method: as §1

[9] = tested on: NCI-H460
Summary of the method: as §1

[10] = tested on: NCI-H1734
Summary of the method: as §1

[11] = tested on: NCI-H838
Summary of the method: as §1

[12] = tested on: LXF-289
Summary of the method: as §1

[13] = tested on: UMC-11
Summary of the method: as §1

[14] = tested on: NCI-H1437
Summary of the method: as §1

[15] = tested on: CAL-12T
Summary of the method: as §1

[16] = tested on: H3255
Summary of the method: as §1

[17] = tested on: NCI-H441
Summary of the method: as §1

[18] = tested on: NCI-H2023
Summary of the method: as §1

[19] = tested on: HOP-62
Summary of the method: as §1

[20] = tested on: NCI-H2405
Summary of the method: as §1

[21] = tested on: EMC-BAC-2
Summary of the method: as §1

C=C1C(=O)O[C@@H](CCCCCCCC)[C@@H]1C(=O)O [C-75] + CC1(C)CCC(c2ccc(Cl)cc2)=C(CN2CCN(c3ccc(C(=O)NS(=O)(=O)c4ccc(N[C@H](CCN5CCOCC5)CSc5ccccc5)c(S(=O)(=O)C(F)(F)F)c4)cc3)CC2)C1 [Navitoclax] (partner 0.5 µM)
relative viability ([1]; first compound 0.08 µM): 0.801
relative viability ([1]; first compound 0.253 µM): 1.01
relative viability ([1]; first compound 0.8 µM): 0.666
relative viability ([1]; first compound 2.53 µM): 0.672
relative viability ([1]; first compound 8 µM): 0.717
relative viability ([2]; first compound 0.08 µM): 0.688
relative viability ([2]; first compound 0.253 µM): 1.03
relative viability ([2]; first compound 0.8 µM): 0.755
relative viability ([2]; first compound 2.53 µM): 0.758
relative viability ([2]; first compound 8 µM): 0.714
relative viability ([3]; first compound 0.08 µM): 0.971
relative viability ([3]; first compound 0.253 µM): 0.953
relative viability ([3]; first compound 0.8 µM): 0.833
relative viability ([3]; first compound 2.53 µM): 0.747
relative viability ([3]; first compound 8 µM): 0.956
relative viability ([4]; first compound 0.08 µM): 1.15
relative viability ([4]; first compound 0.253 µM): 1.2
relative viability ([4]; first compound 0.8 µM): 1.07
relative viability ([4]; first compound 2.53 µM): 1.11
relative viability ([4]; first compound 8 µM): 1.08
relative viability ([5]; first compound 0.08 µM): 1.23
relative viability ([5]; first compound 0.253 µM): 1.27
relative viability ([5]; first compound 0.8 µM): 1.23
relative viability ([5]; first compound 2.53 µM): 1.17
relative viability ([5]; first compound 8 µM): 1.21
relative viability ([6]; first compound 0.08 µM): 1.07
relative viability ([6]; first compound 0.253 µM): 1.11
relative viability ([6]; first compound 0.8 µM): 0.955
relative viability ([6]; first compound 2.53 µM): 0.885
relative viability ([6]; first compound 8 µM): 0.901
relative viability ([7]; first compound 0.08 µM): 0.983
relative viability ([7]; first compound 0.253 µM): 1.1
relative viability ([7]; first compound 0.8 µM): 1.12
relative viability ([7]; first compound 2.53 µM): 1.1
relative viability ([7]; first compound 8 µM): 1.14
relative viability ([8]; first compound 0.08 µM): 0.945
relative viability ([8]; first compound 0.253 µM): 0.935
relative viability ([8]; first compound 0.8 µM): 1.02
relative viability ([8]; first compound 2.53 µM): 0.711
relative viability ([8]; first compound 8 µM): 0.957
relative viability ([9]; first compound 0.08 µM): 1.14
relative viability ([9]; first compound 0.253 µM): 1.23
relative viability ([9]; first compound 0.8 µM): 1.04
relative viability ([9]; first compound 8 µM): 1.08
relative viability ([10]; first compound 0.08 µM): 0.828
relative viability ([10]; first compound 0.253 µM): 0.778
relative viability ([10]; first compound 0.8 µM): 0.815
relative viability ([10]; first compound 2.53 µM): 0.629
relative viability ([10]; first compound 8 µM): 0.754
relative viability ([11]; first compound 0.08 µM): 1.12
relative viability ([11]; first compound 0.253 µM): 0.916
relative viability ([11]; first compound 0.8 µM): 1.14
relative viability ([11]; first compound 2.53 µM): 1.03
relative viability ([11]; first compound 8 µM): 0.954
relative viability ([12]; first compound 0.08 µM): 0.896
relative viability ([12]; first compound 0.253 µM): 0.999
relative viability ([12]; first compound 0.8 µM): 0.91
relative viability ([12]; first compound 2.53 µM): 0.873
relative viability ([12]; first compound 8 µM): 0.928
relative viability ([13]; first compound 0.08 µM): 0.3
relative viability ([13]; first compound 0.253 µM): 0.299
relative viability ([13]; first compound 0.8 µM): 0.292
relative viability ([13]; first compound 2.53 µM): 0.287
relative viability ([13]; first compound 8 µM): 0.239
relative viability ([14]; first compound 0.08 µM): 1.06
relative viability ([14]; first compound 0.253 µM): 1.13
relative viability ([14]; first compound 0.8 µM): 1.09
relative viability ([14]; first compound 2.53 µM): 1.09
relative viability ([14]; first compound 8 µM): 1.08
relative viability ([15]; first compound 0.08 µM): 1.47
relative viability ([15]; first compound 0.253 µM): 1.44
relative viability ([15]; first compound 0.8 µM): 1.17
relative viability ([15]; first compound 8 µM): 1.08
relative viability ([16]; first compound 0.08 µM): 0.565
relative viability ([16]; first compound 0.253 µM): 0.5
relative viability ([16]; first compound 0.8 µM): 0.513
relative viability ([16]; first compound 2.53 µM): 0.466
relative viability ([16]; first compound 8 µM): 0.577
relative viability ([17]; first compound 0.08 µM): 0.566
relative viability ([17]; first compound 0.253 µM): 0.618
relative viability ([17]; first compound 0.8 µM): 0.599
relative viability ([17]; first compound 2.53 µM): 0.401
relative viability ([17]; first compound 8 µM): 0.488
relative viability ([18]; first compound 0.08 µM): 0.971
relative viability ([18]; first compound 0.253 µM): 1.04
relative viability ([18]; first compound 0.8 µM): 0.959
relative viability ([18]; first compound 2.53 µM): 0.659
relative viability ([18]; first compound 8 µM): 0.945
relative viability ([19]; first compound 0.08 µM): 1.02
relative viability ([19]; first compound 0.253 µM): 1.25
relative viability ([19]; first compound 0.8 µM): 1.04
relative viability ([19]; first compound 2.53 µM): 0.889
relative viability ([19]; first compound 8 µM): 0.857
relative viability ([20]; first compound 0.08 µM): 0.93
relative viability ([20]; first compound 0.253 µM): 0.633
relative viability ([20]; first compound 0.8 µM): 0.863
relative viability ([20]; first compound 2.53 µM): 0.83
relative viability ([20]; first compound 8 µM): 0.802
relative viability ([21]; first compound 0.08 µM): 1.13
relative viability ([21]; first compound 0.253 µM): 1.18
relative viability ([21]; first compound 0.8 µM): 1.15
relative viability ([21]; first compound 2.53 µM): 1.07
relative viability ([21]; first compound 8 µM): 1.18
